Data reported in ChEMBL document CHEMBL5344441, “Discovery and Preclinical Pharmacology of NX-2127, an Orally Bioavailable Degrader of Bruton's Tyrosine Kinase with Immunomodulatory Activity for the Treatment of Patients with B Cell Malignancies” (J Med Chem, 2024).
≈ marks a conversion by molar mass, not a printed value.

Key:
[1] = Efflux ratio of apparent permeability in human Caco-2 cells; format: ADME, cell-based
[2] = molecular target: Protein cereblon/Tyrosine-protein kinase BTK (Homo sapiens, UniProt Q06187+Q96SW2, C481S); assay: PROTAC activity at CRBN/BTK C481S mutant in human TMD8 cells assessed as degradation of BTK protein incubated for 4 hrs by HTRF assay; format: cell-based
Sequence of Protein cereblon/Tyrosine-protein kinase BTK (Homo sapiens, UniProt Q06187+Q96SW2, C481S) (Q06187 2-659 C481S limits assumed, stated change not applied): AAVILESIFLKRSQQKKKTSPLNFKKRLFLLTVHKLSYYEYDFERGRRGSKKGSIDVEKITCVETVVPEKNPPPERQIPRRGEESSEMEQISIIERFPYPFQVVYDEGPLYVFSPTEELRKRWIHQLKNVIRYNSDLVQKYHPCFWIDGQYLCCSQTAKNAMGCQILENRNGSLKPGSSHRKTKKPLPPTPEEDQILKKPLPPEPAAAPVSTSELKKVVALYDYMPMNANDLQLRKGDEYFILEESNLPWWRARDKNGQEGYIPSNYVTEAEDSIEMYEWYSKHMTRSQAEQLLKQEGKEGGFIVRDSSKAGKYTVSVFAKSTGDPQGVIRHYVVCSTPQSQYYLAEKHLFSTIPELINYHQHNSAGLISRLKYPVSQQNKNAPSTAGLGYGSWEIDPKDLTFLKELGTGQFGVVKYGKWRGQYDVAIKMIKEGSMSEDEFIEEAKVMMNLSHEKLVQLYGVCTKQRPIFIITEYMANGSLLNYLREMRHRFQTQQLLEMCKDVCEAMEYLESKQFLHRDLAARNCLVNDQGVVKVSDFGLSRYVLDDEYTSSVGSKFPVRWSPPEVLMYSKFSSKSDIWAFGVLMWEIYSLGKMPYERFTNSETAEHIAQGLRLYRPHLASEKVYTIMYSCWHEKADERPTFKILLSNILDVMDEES
Sequence of Protein cereblon/Tyrosine-protein kinase BTK (Homo sapiens, UniProt Q06187+Q96SW2, C481S) (Q96SW2 whole entry, stated change not applied): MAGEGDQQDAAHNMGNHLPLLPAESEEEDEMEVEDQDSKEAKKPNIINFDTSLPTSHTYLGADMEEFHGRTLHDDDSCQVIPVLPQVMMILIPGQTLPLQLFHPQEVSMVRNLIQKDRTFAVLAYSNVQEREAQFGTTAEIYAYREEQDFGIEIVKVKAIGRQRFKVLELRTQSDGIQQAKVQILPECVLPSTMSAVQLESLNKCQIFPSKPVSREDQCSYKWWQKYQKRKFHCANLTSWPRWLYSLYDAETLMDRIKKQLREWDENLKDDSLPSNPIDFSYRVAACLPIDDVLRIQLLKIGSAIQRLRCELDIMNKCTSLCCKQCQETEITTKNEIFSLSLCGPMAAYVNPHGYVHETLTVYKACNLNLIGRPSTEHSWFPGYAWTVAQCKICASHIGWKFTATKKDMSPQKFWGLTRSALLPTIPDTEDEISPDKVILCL

[3] = molecular target: T1, Protein cereblon/Tyrosine-protein kinase BTK (Homo sapiens, UniProt Q06187+Q96SW2); assay: PROTAC activity at CRBN/BTK in human Ramos cells assessed as degradation of BTK protein incubated for 4 hrs by HTRF assay; format: cell-based
Target sequence in this assay (Q06187 whole entry): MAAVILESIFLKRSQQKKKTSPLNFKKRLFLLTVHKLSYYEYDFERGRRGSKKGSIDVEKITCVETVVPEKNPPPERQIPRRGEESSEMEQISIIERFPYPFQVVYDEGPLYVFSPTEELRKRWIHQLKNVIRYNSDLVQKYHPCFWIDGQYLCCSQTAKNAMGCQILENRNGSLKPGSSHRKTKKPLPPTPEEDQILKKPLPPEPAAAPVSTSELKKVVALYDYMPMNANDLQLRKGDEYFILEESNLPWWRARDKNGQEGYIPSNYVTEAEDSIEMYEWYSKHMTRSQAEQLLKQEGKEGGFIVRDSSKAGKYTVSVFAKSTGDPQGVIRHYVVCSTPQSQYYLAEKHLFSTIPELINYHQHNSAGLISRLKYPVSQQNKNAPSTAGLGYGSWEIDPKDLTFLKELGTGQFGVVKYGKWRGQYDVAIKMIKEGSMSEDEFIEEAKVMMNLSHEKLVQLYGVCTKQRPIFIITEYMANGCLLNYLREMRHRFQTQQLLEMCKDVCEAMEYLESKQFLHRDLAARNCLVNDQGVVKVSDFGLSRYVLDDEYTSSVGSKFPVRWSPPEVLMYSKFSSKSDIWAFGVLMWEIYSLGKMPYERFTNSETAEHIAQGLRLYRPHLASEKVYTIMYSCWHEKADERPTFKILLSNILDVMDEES
Target sequence in this assay (Q96SW2 whole entry): as the sequence (Q96SW2 whole entry, stated change not applied) above

[4] = Plasma protein binding in mouse; format: ADME, cell-free; settings: read-out: PPB
[5] = Plasma protein binding in dog; format: ADME, cell-free, Canis lupus familiaris; settings: read-out: PPB (converted)
[6] = molecular target: T1, Protein cereblon/Tyrosine-protein kinase BTK; assay: PROTAC activity at CRBN/BTK in human TMD8 cells assessed as degradation of BTK protein incubated for 4 hrs by HTRF assay; format: cell-based
Target sequence in this assay (Q06187 whole entry): as the sequence (Q06187 whole entry) above
Target sequence in this assay (Q96SW2 whole entry): as the sequence (Q96SW2 whole entry, stated change not applied) above

[7] = AUC in mouse at 10 mg/kg,po; format: ADME, organism-based; design: dose 10 mg/kg, route po; settings: in vivo
[8] = molecular target: T2, Protein cereblon/Tyrosine-protein kinase BTK (Mus musculus) (UniProt P35991+Q8C7D2); assay: In vivo protac activity at CRBN/BTK in BALB/c mouse assessed as remaining BTK protein in splenocyte at 3 mg/kg,po administration measured after 6 hrs by HTRF assay relative to control; format: functional, organism-based
T2 sequence (P35991 whole entry, looked up): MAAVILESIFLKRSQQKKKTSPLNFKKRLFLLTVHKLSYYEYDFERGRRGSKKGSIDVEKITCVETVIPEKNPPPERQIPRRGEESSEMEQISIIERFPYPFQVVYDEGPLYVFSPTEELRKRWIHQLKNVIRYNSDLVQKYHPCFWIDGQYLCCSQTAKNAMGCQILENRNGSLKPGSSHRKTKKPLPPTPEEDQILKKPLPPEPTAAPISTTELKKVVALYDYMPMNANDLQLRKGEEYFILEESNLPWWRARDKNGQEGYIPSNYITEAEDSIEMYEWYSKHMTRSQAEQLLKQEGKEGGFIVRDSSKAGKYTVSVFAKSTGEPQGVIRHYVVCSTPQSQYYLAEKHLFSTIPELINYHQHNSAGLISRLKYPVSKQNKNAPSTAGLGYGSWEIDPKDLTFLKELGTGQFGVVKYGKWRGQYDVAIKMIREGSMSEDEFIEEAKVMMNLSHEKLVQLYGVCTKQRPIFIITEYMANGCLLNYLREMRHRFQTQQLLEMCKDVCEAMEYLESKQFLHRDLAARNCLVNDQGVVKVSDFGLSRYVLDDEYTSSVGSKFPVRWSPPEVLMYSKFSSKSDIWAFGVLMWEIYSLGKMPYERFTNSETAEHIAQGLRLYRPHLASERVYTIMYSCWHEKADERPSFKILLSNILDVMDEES
T2 sequence (Q8C7D2 whole entry, looked up): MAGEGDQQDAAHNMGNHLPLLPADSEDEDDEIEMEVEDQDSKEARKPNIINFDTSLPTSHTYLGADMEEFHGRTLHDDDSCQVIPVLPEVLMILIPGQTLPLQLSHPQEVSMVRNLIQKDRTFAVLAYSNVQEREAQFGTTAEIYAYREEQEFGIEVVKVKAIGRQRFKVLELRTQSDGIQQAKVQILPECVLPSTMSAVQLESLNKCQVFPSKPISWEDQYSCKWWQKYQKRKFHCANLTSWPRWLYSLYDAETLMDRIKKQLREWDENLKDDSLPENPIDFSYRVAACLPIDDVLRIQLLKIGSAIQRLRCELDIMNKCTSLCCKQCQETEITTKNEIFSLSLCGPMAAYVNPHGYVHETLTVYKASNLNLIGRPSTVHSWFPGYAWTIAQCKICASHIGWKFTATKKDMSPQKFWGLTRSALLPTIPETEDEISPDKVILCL

[9] = Aqueous solubility of the compound in PBS at pH 7.4; format: physicochemical
[10] = Apparent permeability across apical to basolateral side in human Caco-2 cells; format: ADME, cell-based
[11] = Ratio of drug concentration in rat blood to plasma; format: ADME, cell-free; settings: whole blood
[12] = test system: Protein cereblon/Tyrosine-protein kinase BTK (Homo sapiens), Q06187+Q96SW2 [C481S]; assay: PROTAC activity at CRBN/BTK C481S mutant in human TMD8 cells assessed as maximal degradation of BTK protein incubated for 4 hrs by HTRF assay relative to control; format: cell-based
[13] = Observed clearance in mouse at 1 mg/kg,iv; format: ADME, organism-based; settings: in vivo
[14] = Plasma protein binding in rat; format: ADME, cell-free; settings: read-out: PPB
[15] = molecular target: T1, Protein cereblon/Tyrosine-protein kinase BTK; assay: PROTAC activity at CRBN/BTK in human Ramos cells assessed as maximal degradation of BTK protein incubated for 4 hrs by HTRF assay relative to control; format: cell-based
Target sequence in this assay (Q06187 2-659 limits assumed): as the sequence (Q06187 2-659 C481S limits assumed, stated change not applied) above, with S480C counted along it
Target sequence in this assay (Q96SW2 whole entry partner): as the sequence (Q96SW2 whole entry, stated change not applied) above

[16] = molecular target: T1, Protein cereblon/Tyrosine-protein kinase BTK; assay: PROTAC activity at CRBN/BTK in human TMD8 cells assessed as maximal degradation of BTK protein incubated for 4 hrs by HTRF assay relative to control; format: cell-based
Target sequence in this assay (Q06187 2-659 limits assumed): as the sequence (Q06187 2-659 C481S limits assumed, stated change not applied) above, with S480C counted along it
Target sequence in this assay (Q96SW2 whole entry partner): as the sequence (Q96SW2 whole entry, stated change not applied) above

[17] = Ratio of drug concentration in cynomolgus monkey blood to plasma; format: ADME, cell-free, Macaca fascicularis; settings: whole blood
[18] = Plasma protein binding in cynomolgus monkey; format: ADME, cell-free, Macaca fascicularis; settings: read-out: PPB (converted)
[19] = Ratio of drug concentration in mouse blood to plasma; format: ADME, cell-free; settings: whole blood
[20] = Ratio of drug concentration in dog blood to plasma; format: ADME, cell-free, Canis lupus familiaris; settings: whole blood
[21] = Plasma protein binding in human; format: ADME, cell-free; settings: read-out: PPB (converted)
[22] = Ratio of drug concentration in human blood to plasma; format: ADME, cell-free; settings: whole blood
[23] = Lipophilicity, logD of compound at pH 7.4; format: physicochemical; settings: buffer
[24] = Oral bioavailability in mouse at 10 mg/kg; format: ADME, organism-based; settings: in vivo
[25] = molecular target: T2, Protein cereblon/Tyrosine-protein kinase BTK (Mus musculus); assay: In vivo protac activity at CRBN/BTK in BALB/c mouse assessed as remaining BTK protein in blood at 3 mg/kg,po administration measured after 6 hrs by flow cytomtery relative to control; format: functional, organism-based
[26] = molecular target: Protein cereblon/Zinc finger protein Aiolos (Homo sapiens, UniProt Q96SW2+Q9UKT9); assay: PROTAC activity at CRBN/IKZF3 in human T cell assessed as maximal degradation of IKZF3 protein incubated for 24 hrs by flow cytometry relative to control; format: cell-based
Sequence of Protein cereblon/Zinc finger protein Aiolos (Q96SW2 whole entry, looked up): as the sequence (Q96SW2 whole entry, stated change not applied) above
Sequence of Protein cereblon/Zinc finger protein Aiolos (Q9UKT9 whole entry, looked up): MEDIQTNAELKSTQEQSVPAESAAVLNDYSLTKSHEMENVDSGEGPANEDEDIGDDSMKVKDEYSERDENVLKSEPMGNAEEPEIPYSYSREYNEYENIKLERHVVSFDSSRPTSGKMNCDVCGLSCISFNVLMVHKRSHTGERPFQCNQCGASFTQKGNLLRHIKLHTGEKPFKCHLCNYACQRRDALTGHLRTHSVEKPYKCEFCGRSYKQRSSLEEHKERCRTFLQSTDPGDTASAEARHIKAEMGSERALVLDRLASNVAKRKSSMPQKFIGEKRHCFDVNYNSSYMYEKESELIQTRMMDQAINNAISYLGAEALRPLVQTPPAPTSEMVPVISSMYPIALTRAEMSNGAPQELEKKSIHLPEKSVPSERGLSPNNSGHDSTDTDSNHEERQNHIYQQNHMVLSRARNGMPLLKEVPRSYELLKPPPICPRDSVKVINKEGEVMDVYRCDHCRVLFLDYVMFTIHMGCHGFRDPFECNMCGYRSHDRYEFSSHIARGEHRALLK

Cereblon/Ikaros = Cereblon/Ikaros (Homo sapiens, UniProt Q96SW2+Q13422); assay: PROTAC activity at CRBN/IKZF1 in human T cell assessed as degradation of IKZF1 protein incubated for 24 hrs by flow cytometry; format: cell-based
Sequence of Cereblon/Ikaros (Q96SW2 whole entry): as the sequence (Q96SW2 whole entry, stated change not applied) above
Sequence of Cereblon/Ikaros (Q13422 whole entry): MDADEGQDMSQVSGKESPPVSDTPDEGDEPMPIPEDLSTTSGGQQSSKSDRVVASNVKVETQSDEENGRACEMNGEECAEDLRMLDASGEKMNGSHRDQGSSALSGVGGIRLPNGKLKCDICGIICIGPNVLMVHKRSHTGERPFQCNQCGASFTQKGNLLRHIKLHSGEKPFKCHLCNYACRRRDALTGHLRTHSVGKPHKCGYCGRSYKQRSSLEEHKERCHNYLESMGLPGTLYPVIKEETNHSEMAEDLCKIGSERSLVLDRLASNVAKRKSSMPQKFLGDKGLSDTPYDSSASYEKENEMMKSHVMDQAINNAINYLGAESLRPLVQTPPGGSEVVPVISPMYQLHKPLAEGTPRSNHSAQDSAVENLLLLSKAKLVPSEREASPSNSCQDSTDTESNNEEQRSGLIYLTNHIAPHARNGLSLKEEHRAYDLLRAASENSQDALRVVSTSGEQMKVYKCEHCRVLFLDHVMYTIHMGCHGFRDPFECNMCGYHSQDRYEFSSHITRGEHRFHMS

CN1CCN([C@@H]2CCCN(c3cnc(C(N)=O)c(Nc4ccc(C5CCN(C[C@H]6CCN(c7ccc8c(c7)C(=O)N(C7CCC(=O)NC7=O)C8=O)C6)CC5)cc4)n3)C2)C1=O (some centres not stated)
efflux ratio [1]: > 84 | DC50 [2]: 1.5 nM | DC50 [3]: 0.5 nM | fraction unbound [4]: < 0.015 | fraction unbound [5]: 0.031 | DC50 [6]: 0.35 nM | AUC [7]: 3.6 µM·h | Activity [8]: 32% | solubility [9]: 0.3 µM (≈ 0.245 µg/mL) | Papp A→B [10]: < 0.01 ×10⁻⁶ cm/s | blood plasma ratio [11]: 1.3 | Emax [12]: 94.8% | clearance [13]: 3 mL/min/kg | fraction unbound [14]: < 0.015 | Emax [15]: 97% | Emax [16]: 97% | blood plasma ratio [17]: 11 | fraction unbound [18]: 0.025 | blood plasma ratio [19]: 1.1 | blood plasma ratio [20]: 6 | fraction unbound [21]: 0.066 | blood plasma ratio [22]: 0.3 | logD [23]: 3.7 | bioavailability [24]: 5.4% | Activity [25]: 50% | Emax [26]: 79% | DC50 (Cereblon/Ikaros): 57 nM
